# Experimental data taken from patent US12274706B2 (MEDAC GESELLSCHAFT FUER KLINISCHE SPEZIALPRAEPARATE MBH, priority 2017, dated 2025).
# Several values for one entry are separate records, joined by “and”; a condition that tells them apart may be missing. Identical values can stand only once. Like-named read-outs stand apart in the source and are kept apart here.
# How the values were obtained:
# Water vapor uptake (GVS) = type: physicochemical
# [1] = Solubility of sulfasalazine, Form A meglumine salt and pharmaceutical compositions (HPLC); type: physicochemical
# Protocol: The mobile phase consists of mobile phase (A): 1.13 g sodium dihydrogen phosphate and 2.5 g sodium acetate are dissolved in 1000 mL purified water. The pH is afterwards adjusted with acetic acid (100%) to 4.8. and mobile phase (B): 1 part mobile phase A is mixed with 4 parts of methanol for chromatography. The flow rate was 1.0 mL/min, injection volume 5 μL and detection wavelengths 320 nm (HP DAD series 1100). Run time is 10 min. Quantitation was performed using external standard methodology. The assay method has been validated with respect to selectivity, repeatability and linearity. Samples are prepared with dilute ammonia R3 PhEur.
# The saturated solutions were filtrated using centrifuge filters (Nylon, […]) and the clear supernatants were respectively injected either directly or after dilution with dilute ammonia R3 PhEur.
# The resulting solution is further diluted with phosphate buffer (pH 6.8) to 1% v/v solution prior. The resulting phosphate buffer solution is diluted with dilute ammonia R3 prior to injection.
# [2] = cited from earlier work
# [3] = test system: binding of TNF-alpha to its receptor; conditions: 125I-TNF-alpha displacement; cited from earlier work
# [4] = cited from earlier work; remark: listed apart in the source
# in vitro = conditions: human, Caco-2
# physchem = conditions: de-ionized water, 24 °C
structure (smiles),measurement,setting,value
"CCNCC.O=C(O)c1cc(N=Nc2ccc(S(=O)(=O)Nc3ccccn3)cc2)ccc1O [Form A diethylamine salt, diethylamine 2-hydroxy-5-[2-[4-[(2-pyridinylamino)sulfonyl]phenyl]diazenyl]-benzoate, crystal Form A]",water vapor uptake (GVS; % w/w) at 30% RH,Water vapor uptake (GVS),0.3 % w/w
same,water vapor uptake (GVS; % w/w) at 80% RH,Water vapor uptake (GVS),0.5 % w/w
"CNCC(O)C(O)C(O)C(O)CO.O=C(O)c1cc(N=Nc2ccc(S(=O)(=O)Nc3ccccn3)cc2)ccc1O [Form A meglumine salt, D(−)-N-methylglucamine 2-hydroxy-5-[2-[4-[(2-pyridinylamino)sulfonyl]phenyl]diazenyl]-benzoate, crystal Form A]",water vapor uptake (GVS; % w/w) at 30% RH,Water vapor uptake (GVS); listed as 4.1,< 0.4 % w/w
same,water vapor uptake (GVS; % w/w) at 30% RH,Water vapor uptake (GVS); listed as 4.2,0.4 % w/w
same,water vapor uptake (GVS; % w/w) at 80% RH,Water vapor uptake (GVS),1.1 % w/w
same,water vapor uptake (GVS; % w/w) at 80% RH,Water vapor uptake (GVS); listed as 4.1,< 0.9 % w/w
same,Solubility (mg/mL) FaSSIF-V2,"[1]; FaSSIF-V2 medium, room temperature (20-25° C.), saturated solution",15.3 mg/mL
same,Solubility (mg/mL) Water,"[1]; water, diluted in phosphate Buffer pH 6.8",60.3 mg/mL
same,Solubility (mg/mL) Water,"[1]; water, room temperature",104.8 mg/mL
same,solubility in de-ionized water at 24° C. and pH 6.6,,> 54 mg/mL
"C1CNCCN1.O=C(O)c1cc(N=Nc2ccc(S(=O)(=O)Nc3ccccn3)cc2)ccc1O [Form A piperazine salt, piperazine 2-hydroxy-5-[2-[4-[(2-pyridinylamino)sulfonyl]phenyl]diazenyl]-benzoate, crystal Form A]",water vapor uptake (GVS; % w/w) at 30% RH,Water vapor uptake (GVS),0.4 % w/w
same,water vapor uptake (GVS; % w/w) at 80% RH,Water vapor uptake (GVS),0.9 % w/w
Nc1ccc(S(=O)(=O)Nc2ccccn2)cc1 [sulfapyridine],systemic bioavailability,[2]; metabolite formed from non-absorbed sulfasalazine by gut flora,about 60%
"O=C(O)c1cc(N=Nc2ccc(S(=O)(=O)Nc3ccccn3)cc2)ccc1O [sulfasalazine, 2-hydroxy-5-[2-[4-[(2-pyridinylamino)sulfonyl]phenyl]diazenyl]-benzoic acid]",solubility at 24 h,"[1]; pH 5.9, thermodynamic from solid, water, room temperature, read-out: Solubility (mg/mL) Water",0.06 mg/mL
same,solubility at 24 h,"[1]; pH 6.3, thermodynamic from solid, FaSSIF-V2 medium, room temperature (20-25° C.), saturated solution, read-out: Solubility (mg/mL) FaSSIF-V2",0.78 mg/mL
same,half-life,[2]; intravenously administered,approximately 7.6±3.6 hours
same,median peak concentration (time),"[2]; man, oral",6 h
same,binding of TNF-alpha to its receptor,[3],inhibits
same,solubility in de-ionized water at 24° C.,"[4]; 24° C., literature value",30 µg/mL and 31 µg/mL
same,solubility class according to United States Pharmacopoeia (practically insoluble),[4]; USP classification,< 100 µg/mL
same,solubility in water,[4]; water,less than 5 mg/100 ml
same,"Papp A→B at 180 min, 200 μg/mL",in vitro,1.16 ×10⁻⁶ cm/s
same,"Papp A→B at 180 min, 2000 μg/mL",in vitro,0.81 ×10⁻⁶ cm/s
same,"Papp B→A at 180 min, 200 μg/mL",in vitro,4.76 ×10⁻⁶ cm/s
same,"Papp B→A at 180 min, 2000 μg/mL",in vitro,2.79 ×10⁻⁶ cm/s
same,solubility,physchem,60 µg/mL
